Activity calls are given as the source filed them.
Assays:
Insulin-degrading enzyme [1] = molecular target: T1, Insulin-degrading enzyme (Homo sapiens, UniProt P14735); assay: activators of endogenous IDE in HEK cells, dose response, cell-based, fluorescence polarization (AID 588439); assay type: functional
T1 sequence (P14735 whole entry): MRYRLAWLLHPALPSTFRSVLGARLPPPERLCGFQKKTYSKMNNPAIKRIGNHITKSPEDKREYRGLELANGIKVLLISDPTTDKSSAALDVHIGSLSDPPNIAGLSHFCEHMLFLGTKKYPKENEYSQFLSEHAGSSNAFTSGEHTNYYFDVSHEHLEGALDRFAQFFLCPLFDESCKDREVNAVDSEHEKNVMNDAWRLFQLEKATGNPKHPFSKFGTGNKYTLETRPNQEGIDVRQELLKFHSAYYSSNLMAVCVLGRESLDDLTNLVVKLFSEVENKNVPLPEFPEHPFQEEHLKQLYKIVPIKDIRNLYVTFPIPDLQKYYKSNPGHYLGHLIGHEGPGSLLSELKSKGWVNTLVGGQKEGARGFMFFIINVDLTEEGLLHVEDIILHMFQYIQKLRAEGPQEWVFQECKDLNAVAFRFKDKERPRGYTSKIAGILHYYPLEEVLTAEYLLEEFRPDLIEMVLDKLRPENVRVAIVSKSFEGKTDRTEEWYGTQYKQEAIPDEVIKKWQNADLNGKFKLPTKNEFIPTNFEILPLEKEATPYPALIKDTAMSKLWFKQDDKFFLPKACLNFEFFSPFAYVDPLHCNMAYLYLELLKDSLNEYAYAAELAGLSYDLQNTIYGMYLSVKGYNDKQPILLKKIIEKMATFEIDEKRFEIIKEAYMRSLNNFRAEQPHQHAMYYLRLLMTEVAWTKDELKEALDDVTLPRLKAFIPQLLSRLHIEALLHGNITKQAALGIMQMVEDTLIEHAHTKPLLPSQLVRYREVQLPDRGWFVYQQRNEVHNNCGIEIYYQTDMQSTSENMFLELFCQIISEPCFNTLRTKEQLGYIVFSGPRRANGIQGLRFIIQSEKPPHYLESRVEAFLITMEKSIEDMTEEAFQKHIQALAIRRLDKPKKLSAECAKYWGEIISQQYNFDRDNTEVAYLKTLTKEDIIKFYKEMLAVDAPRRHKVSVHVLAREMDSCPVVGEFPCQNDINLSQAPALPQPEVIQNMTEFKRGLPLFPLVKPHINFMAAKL

HEK293 [2] = assay: optical interference in Abeta FP readout, dose response, artefact control for IDE activator project, biochemical, fluorescence polarization (AID 588442); assay type: functional, cell-based; conditions: Homo sapiens
Insulin-degrading enzyme [3] = molecular target: T1, Insulin-degrading enzyme; assay: activators of recombinant IDE enzyme, dose response, counter-screen for IDE activator project, biochemical, fluorescence polarization (AID 588681)
HEK293 [4] = assay: HEK cell cytotoxicity by LDH release, dose response, cytotoxicity control for IDE activator project, fluorescence, HEK cells (AID 588440); assay type: functional, cell-based; conditions: Homo sapiens;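 also: cytotoxicity by LDH release measuring loss of membrane integrity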
[5] = Luminescence Cell-Based Dose Retest to Confirm Inhibitors of Cancer Stem Cells. [Related pubchem assays (depositor defined):AID2717, AID2721]; assay type: functional; conditions: Homo sapiens
[6] = molecular target: Protein disulfide-isomerase (Homo sapiens, UniProt P07237); assay: PDI inhibitors, insulin aggregation turbidity, dose response, biochemical, absorbance, cherry-picked samples (AID 602350); assay type: functional
Phospholipase D1 = molecular target: T2, Phospholipase D1 (Homo sapiens, UniProt Q13393); assay: PLD1 inhibitor potency in cells, dose response (AID 602151); assay type: functional;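 also: cellular PLD1 assay in Calu-1 cells stimulated with PMA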
T2 sequence (Q13393 whole entry): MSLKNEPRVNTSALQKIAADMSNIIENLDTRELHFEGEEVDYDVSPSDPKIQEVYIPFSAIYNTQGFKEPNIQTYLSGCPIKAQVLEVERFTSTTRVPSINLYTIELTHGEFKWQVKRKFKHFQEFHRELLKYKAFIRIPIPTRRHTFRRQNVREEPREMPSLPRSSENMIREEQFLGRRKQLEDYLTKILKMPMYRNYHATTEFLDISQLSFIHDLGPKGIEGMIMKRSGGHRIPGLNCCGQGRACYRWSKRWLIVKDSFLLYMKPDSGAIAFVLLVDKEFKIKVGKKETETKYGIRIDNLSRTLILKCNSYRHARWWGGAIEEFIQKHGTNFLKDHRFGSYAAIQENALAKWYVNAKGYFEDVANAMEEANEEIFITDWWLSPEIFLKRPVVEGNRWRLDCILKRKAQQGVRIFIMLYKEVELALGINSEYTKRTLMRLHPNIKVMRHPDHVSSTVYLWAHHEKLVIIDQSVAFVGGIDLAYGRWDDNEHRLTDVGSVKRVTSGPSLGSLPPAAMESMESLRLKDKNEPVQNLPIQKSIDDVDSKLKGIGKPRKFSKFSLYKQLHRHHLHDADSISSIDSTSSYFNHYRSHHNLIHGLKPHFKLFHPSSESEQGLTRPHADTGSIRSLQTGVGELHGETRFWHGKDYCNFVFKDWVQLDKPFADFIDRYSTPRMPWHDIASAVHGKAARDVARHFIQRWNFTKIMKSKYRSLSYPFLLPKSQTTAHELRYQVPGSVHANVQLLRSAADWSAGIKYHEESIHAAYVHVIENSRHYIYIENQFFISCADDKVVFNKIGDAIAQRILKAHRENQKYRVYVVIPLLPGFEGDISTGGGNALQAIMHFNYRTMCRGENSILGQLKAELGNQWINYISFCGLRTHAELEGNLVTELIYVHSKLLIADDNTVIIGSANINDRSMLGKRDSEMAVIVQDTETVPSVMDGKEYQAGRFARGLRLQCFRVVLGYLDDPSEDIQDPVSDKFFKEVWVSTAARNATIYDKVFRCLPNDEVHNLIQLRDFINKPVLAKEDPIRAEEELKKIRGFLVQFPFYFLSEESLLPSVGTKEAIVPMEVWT

Phospholipase D2 = Phospholipase D2 (Homo sapiens, UniProt O14939); assay: PLD2 inhibitor potency in cells, dose response (AID 602147); assay type: functional;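 also: cellular assay in HEK293 cells overexpressing GFP-tagged PLD2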
Phospholipase D2, sequence (O14939 whole entry): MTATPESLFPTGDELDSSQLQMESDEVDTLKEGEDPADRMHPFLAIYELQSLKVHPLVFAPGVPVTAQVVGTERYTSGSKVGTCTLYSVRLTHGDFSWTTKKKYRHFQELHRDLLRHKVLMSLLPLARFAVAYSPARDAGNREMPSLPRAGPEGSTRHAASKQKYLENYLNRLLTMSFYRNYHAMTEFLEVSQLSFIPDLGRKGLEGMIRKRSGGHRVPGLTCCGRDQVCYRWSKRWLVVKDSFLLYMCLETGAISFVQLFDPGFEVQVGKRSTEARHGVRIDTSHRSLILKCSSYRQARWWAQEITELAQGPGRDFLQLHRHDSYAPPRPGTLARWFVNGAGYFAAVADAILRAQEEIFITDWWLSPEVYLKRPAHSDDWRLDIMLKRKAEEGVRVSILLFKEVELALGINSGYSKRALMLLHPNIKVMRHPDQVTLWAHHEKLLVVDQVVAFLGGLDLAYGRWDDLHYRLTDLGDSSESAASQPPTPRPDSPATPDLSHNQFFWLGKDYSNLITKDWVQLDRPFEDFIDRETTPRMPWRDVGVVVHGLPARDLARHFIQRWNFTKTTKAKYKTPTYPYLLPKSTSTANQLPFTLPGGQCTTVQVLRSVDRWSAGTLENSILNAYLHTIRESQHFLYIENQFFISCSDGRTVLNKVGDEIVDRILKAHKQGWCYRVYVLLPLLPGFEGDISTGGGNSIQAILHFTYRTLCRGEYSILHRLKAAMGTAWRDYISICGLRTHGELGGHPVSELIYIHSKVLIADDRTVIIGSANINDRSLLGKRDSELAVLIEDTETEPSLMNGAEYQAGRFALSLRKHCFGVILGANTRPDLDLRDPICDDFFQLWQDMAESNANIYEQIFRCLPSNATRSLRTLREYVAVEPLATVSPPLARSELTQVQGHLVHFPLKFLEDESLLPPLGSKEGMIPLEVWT

Protein disulfide-isomerase, sequence (P07237 whole entry): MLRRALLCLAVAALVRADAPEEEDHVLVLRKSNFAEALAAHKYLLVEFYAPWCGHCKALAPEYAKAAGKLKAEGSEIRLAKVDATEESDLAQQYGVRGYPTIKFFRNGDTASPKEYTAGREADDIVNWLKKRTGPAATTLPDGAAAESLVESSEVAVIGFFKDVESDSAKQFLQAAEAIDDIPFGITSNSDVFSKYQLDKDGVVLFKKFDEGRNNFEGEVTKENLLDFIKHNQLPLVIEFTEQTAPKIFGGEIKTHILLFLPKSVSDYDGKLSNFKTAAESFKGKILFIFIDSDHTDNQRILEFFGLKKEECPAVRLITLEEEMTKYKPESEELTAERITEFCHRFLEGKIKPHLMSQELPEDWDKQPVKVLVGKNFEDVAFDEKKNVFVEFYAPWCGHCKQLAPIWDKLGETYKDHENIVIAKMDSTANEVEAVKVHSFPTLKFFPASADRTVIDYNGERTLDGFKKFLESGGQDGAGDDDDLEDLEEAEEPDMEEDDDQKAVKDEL

SMILES: CN(C)CCCN(C(=O)CCSc1ccccc1)c1nc2cc3c(cc2s1)OCO3
- EC50 (Insulin-degrading enzyme [1]): > 54.7 µM (inactive)
- EC50 (HEK293 [2]): > 54.7 µM (inactive)
- EC50 (Insulin-degrading enzyme [3]): > 54.7 µM (inactive)
- IC50 (HEK293 [4]): 33.9 µM (inactive)

SMILES: Oc1ccc(/C=C/c2nc(-c3ccccc3O)n(-c3ccccc3)n2)cc1
- AC50 [5]: 6.8 µM (active)
- AC50 [6]: 18.8 µM (active)

SMILES: C[C@@H](CN1CCC2(CC1)C(=O)NCN2c1ccc(F)c(F)c1)NC(=O)c1ccc(Cl)cc1
- IC50 (Phospholipase D1): 0.031 µM (active)
- IC50 (Phospholipase D2): 0.125 µM (active)

SMILES: COc1ccc(C2c3ccc(O)cc3Oc3ncn(CCN4CCOCC4)c(=N)c32)cc1OC (centres undefined)
- AC50 [6]: 15.5 µM (active)

Reference: ChEMBL document CHEMBL1201862, “PubChem BioAssay data set” (2004)
